Converted amounts (≈) assume the structure as drawn. The source made the active and inactive calls. No cut-off for these calls is given here.
Tests used:
[1] = tested on: MGC-803; test: Antitumor activity against human MGC-803 cells assessed as cell growth inhibition incubated for 72 hrs by MTT assay; assay type: functional, cell-based; conditions: MGC-803, 72 h
[2] = tested on: PC-3; test: Antitumor activity against human PC-3 cells assessed as cell growth inhibition incubated for 72 hrs by MTT assay; assay type: functional, cell-based; conditions: PC-3, 72 h
[3] = Solubility in cell culture medium by HPLC analysis; assay type: physicochemical
[4] = tested on: A549; test: Antitumor activity against human A549 cells with low Skp2 expression assessed as cell growth inhibition incubated for 72 hrs by MTT assay; assay type: functional, cell-based; conditions: A549, 72 h
[5] = tested on: MGC-803; test: Upregulation of p21 level in human MGC-803 cells at 10 uM incubated upto 48 hrs by Western blot analysis; assay type: functional, cell-based
[6] = tested on: MGC-803; test: Upregulation of p27 level in human MGC-803 cells at 10 uM incubated upto 48 hrs by Western blot analysis; assay type: functional, cell-based
[7] = tested on: PC-3; test: Inhibition of cell migration in human PC-3 cells incubated for 48 hrs by wound healing assay; assay type: functional, cell-based; conditions: dose <= 2.0 µM
[8] = tested on: MGC-803; test: Inhibition of cell migration in human MGC-803 cells by transwell invasion assay; assay type: functional, cell-based; conditions: dose <= 2.0 µM
[9] = tested on: PC-3; test: Induction of cell cycle arrest in human PC-3 cells assessed as accumulation of cells at G1 phase at 5 uM incubated for 48 hrs by flow cytometry (reference value: 57.39 %); assay type: functional
[10] = tested on: PC-3; test: Induction of cell cycle arrest in human PC-3 cells assessed as accumulation of cells at G2 phase at 5 uM incubated for 48 hrs by flow cytometry (reference value: 22.59 %); assay type: functional
[11] = tested on: PC-3; test: Induction of cell cycle arrest in human PC-3 cells assessed as accumulation of cells at G1 phase at 10 uM incubated for 48 hrs by flow cytometry (reference value: 57.39 %); assay type: functional
[12] = tested on: PC-3; test: Induction of cell cycle arrest in human PC-3 cells assessed as accumulation of cells at G2 phase at 10 uM incubated for 48 hrs by flow cytometry (reference value: 22.59 %); assay type: functional
[13] = tested on: MGC-803; test: Induction of cell cycle arrest in human MGC-803 cells assessed as accumulation of cells at G2 phase at 2.5 uM incubated for 48 hrs by flow cytometry (reference value: 21.35 %); assay type: functional
[14] = tested on: MGC-803; test: Induction of cell cycle arrest in human MGC-803 cells assessed as accumulation of cells at S phase at 5 uM incubated for 48 hrs by flow cytometry (reference value: 22.72 %); assay type: functional
[15] = tested on: MGC-803; test: Induction of cell cycle arrest in human MGC-803 cells assessed as accumulation of cells at S phase at 10 uM incubated for 48 hrs by flow cytometry (reference value: 22.72 %); assay type: functional
[16] = tested on: PC-3; test: Induction of cell cycle arrest in human PC-3 cells assessed as accumulation of cells at G1 phase at 10 uM incubated for 6 hrs by flow cytometry (reference value: 56.81 %); assay type: functional
[17] = tested on: PC-3; test: Induction of cell cycle arrest in human PC-3 cells assessed as accumulation of cells at G1 phase at 10 uM incubated for 48 hrs by flow cytometry (reference value: 56.81 %); assay type: functional
[18] = tested on: MGC-803; test: Induction of cell cycle arrest in human MGC-803 cells assessed as accumulation of cells at G1 phase at 10 uM incubated for 6 hrs by flow cytometry (reference value: 57.09 %); assay type: functional
[19] = tested on: MGC-803; test: Induction of cell cycle arrest in human MGC-803 cells assessed as accumulation of cells at G2 phase at 10 uM incubated for 6 hrs by flow cytometry (reference value: 20.64 %); assay type: functional
[20] = tested on: MGC-803; test: Induction of cell cycle arrest in human MGC-803 cells assessed as accumulation of cells at S phase at 10 uM incubated for 12 hrs by flow cytometry (reference value: 20.41 %); assay type: functional
[21] = tested on: MGC-803; test: Induction of cell cycle arrest in human MGC-803 cells assessed as accumulation of cells at G1 phase at 10 uM incubated for 48 hrs by flow cytometry (reference value: 57.09 %); assay type: functional
[22] = tested on: MGC-803; test: Induction of cell cycle arrest in human MGC-803 cells assessed as accumulation of cells at S phase at 10 uM incubated for 48 hrs by flow cytometry (reference value: 20.41 %); assay type: functional
[23] = tested on: PC-3; test: Induction of apoptosis in human PC-3 cells assessed as cell shrinkage incubated for 48 hrs; assay type: functional, cell-based; conditions: dose <= 10.0 µM
[24] = tested on: PC-3; test: Induction of apoptosis in human PC-3 cells assessed as viable cells at 5 uM incubated for 48 hrs by annexin V-FITC/PI staining based flow cytometry (reference value: 98.6 %); assay type: functional; conditions: read-out: Activity
[25] = tested on: PC-3; test: Induction of apoptosis in human PC-3 cells assessed as necrotic cells at 10 uM incubated for 48 hrs by annexin V-FITC/PI staining based flow cytometry (reference value: 0.14 %); assay type: functional
[26] = tested on: MGC-803; test: Induction of apoptosis in human MGC-803 cells assessed as viable cells at 2.5 uM incubated for 48 hrs by annexin V-FITC/PI staining based flow cytometry (reference value: 98 %); assay type: functional; conditions: read-out: Activity
[27] = tested on: MGC-803; test: Induction of apoptosis in human MGC-803 cells assessed as late apoptotic cells at 5 uM incubated for 48 hrs by annexin V-FITC/PI staining based flow cytometry (reference value: 0.95 %); assay type: functional
[28] = Toxicity in NOD-SCID mouse model xenografted with human PC-3 cells assessed as drug tolerance at 10 to 50 mg/kg, IG administered once every 2 days for 21 days; assay type: organism-based; conditions: in vivo, po, 504 h, dose 10-50 mg/kg, time 21 day
[29] = Toxicity in NOD-SCID mouse model xenografted with human PC-3 cells assessed as change in kidney histology at 10 to 50 mg/kg, IG administered once every 2 days for 21 days by H and E staining based analysis; assay type: organism-based; conditions: in vivo, po, 504 h, dose 10-50 mg/kg, time 21 day
[30] = Toxicity in NOD-SCID mouse model xenografted with human PC-3 cells assessed as change in heart histology at 10 to 50 mg/kg, IG administered once every 2 days for 21 days by H and E staining based analysis; assay type: organism-based; conditions: in vivo, po, 504 h, dose 10-50 mg/kg, time 21 day
[31] = Toxicity in NOD-SCID mouse model xenografted with human MGC-803 cells assessed as body weight change at 10 to 50 mg/kg, IG administered once every 2 days for 21 days; assay type: organism-based; conditions: in vivo, po, 504 h, dose 10-50 mg/kg, time 21 day
[32] = tested on: MGC-803; test: Antitumor activity against human MGC-803 cells xenografted in NOD-SCID mouse model assessed as increase in apoptosis in tumor tissue at 10 to 50 mg/kg, IG administered once every 2 days for 21 days by TUNEL staining based analysis; assay type: functional, organism-based; conditions: dose 10-50 mg/kg, time 21.0 day
[33] = AUC (infinity) in plasma of NOD-SCID mouse model xenografted with human PC-3 cells at 25 mg/kg, IG measured upto 48 hrs by LC-MS/MS analysis; assay type: ADME, organism-based; set-up: time < 48 hrs, dose 25 mg/kg, route ig; conditions: po
[34] = AUC (infinity) in tumor of NOD-SCID mouse model xenografted with human PC-3 cells at 25 mg/kg, IG measured upto 48 hrs by LC-MS/MS analysis; assay type: ADME, organism-based, Neoplasm; set-up: dose 25 mg/kg, time < 48 hrs, route ig; conditions: in vivo, po
[35] = Apparent volume of distribution in tumor of NOD-SCID mouse model xenografted with human PC-3 cells at 25 mg/kg, IG measured upto 48 hrs by LC-MS/MS analysis; assay type: ADME, organism-based, Neoplasm; conditions: in vivo, po
[36] = Clearance in plasma of NOD-SCID mouse model xenografted with human PC-3 cells at 25 mg/kg, IG measured upto 48 hrs by LC-MS/MS analysis; assay type: ADME, organism-based; conditions: po

IC50 [1]: 7 µM | IC50 [2]: 4.8 µM | solubility [3]: 3.26 µg/mL (≈ 8.01 µM) | IC50 [4]: 18.2 µM | AUC(0-inf) [33]: 3550 ng·h/mL | AUC [34]: 2636 ng·h/g | Vz [35]: 170.8 L/kg | CL/F [36]: 118 mL/min/kg
Structure (SMILES): O=C(CCl)NC1CCN(c2cnc(-c3ccccc3)c(-c3ccccc3)n2)CC1
Activity [5]: Active | Activity [6]: Active | inhibition [7]: Dose-Dependent Effect | inhibition [8]: Dose-Dependent Effect | Activity [9]: 44.65% | Activity [10]: 16.41% | Activity [11]: 39.51% | Activity [12]: 16.41% | Activity [13]: 23.15% | Activity [14]: 35.78% | Activity [15]: 45.07% | Activity [16]: 46.91% | Activity [17]: 35.47% | Activity [18]: 47.84% | Activity [19]: 17.82% | Activity [20]: 31.88% | Activity [21]: 35.53% | Activity [22]: 38.76% | Activity [23]: Dose-Dependent Effect | viability at 5 µM [24]: 82.5% | Activity [25]: 13.2% | viability at 2.5 µM [26]: 89.6% | Activity [27]: 12.3% | Activity [28]: Non-Toxic | Activity [29]: Non-Toxic | Activity [30]: Non-Toxic | Activity [31]: Non-Toxic | Activity [32]: Active

— ChEMBL document CHEMBL5338791, “Discovery of Novel 1,3-Diphenylpyrazine Derivatives as Potent S-Phase Kinase-Associated Protein 2 (Skp2) Inhibitors for the Treatment of Cancer” (J Med Chem, 2023)
